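Following 48 hours of exposure in 96-well plates, responses at five concentrations were used to interpolate endpoints linearly. GI50: concentration for 50% inhibition of growth.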 Activity calls are given as the source filed them. Rule as the data show it: active = GI50 up to about 1.1 µM and inactive = higher.
What was measured:
Test in all cases: NCI anticancer screen, dose series, 48 h
[1] = test system: CAKI-1
[2] = test system: CCRF-CEM
[3] = test system: COLO 205
[4] = test system: DLD-1
[5] = test system: DMS-273
[6] = test system: HCC 2998
[7] = test system: HCT-15
[8] = test system: HOP-92
[9] = test system: HT-29
[10] = test system: IGROV-1
[11] = test system: K562
[12] = test system: KM-20L2
[13] = test system: KM12
[14] = test system: LXFL 529
[15] = test system: M14
[16] = test system: M19-MEL
[17] = test system: MOLT-4
[18] = test system: Malme-3M
[19] = test system: NCI-H23
[20] = test system: NCI-H522
[21] = test system: OVCAR-3
[22] = test system: OVCAR-4
[23] = test system: OVCAR-5
[24] = test system: OVCAR-8
[25] = test system: RXF 393
[26] = test system: RXF 631
[27] = test system: SF-295
[28] = test system: SK-MEL-28
[29] = test system: SK-MEL-2
[30] = test system: SK-MEL-5
[31] = test system: SK-OV-3
[32] = test system: SN12C
[33] = test system: SNB-19
[34] = test system: SNB-78
[35] = test system: SR
[36] = test system: SW-620
[37] = test system: TK-10
[38] = test system: U-251
[39] = test system: UACC-62
[40] = test system: UO-31
[41] = test system: XF498
[42] = test system: 786-0
[43] = test system: A498
[44] = test system: A549
[45] = test system: ACHN
[46] = test system: BT-549
[47] = test system: DMS-114
[48] = test system: DU-145
[49] = test system: EKVX
[50] = test system: HCT-116
[51] = test system: HL-60
[52] = test system: HOP-18
[53] = test system: HOP-62
[54] = test system: Hs-578T
[55] = test system: LOX IMVI
[56] = test system: MCF7
[57] = test system: MDA-MB-231
[58] = test system: MDA-MB-435
[59] = test system: MDA-N
[60] = test system: NCI-H226
[61] = test system: NCI-H460
[62] = test system: PC-3
[63] = test system: RPMI-8226
[64] = test system: SF-268
[65] = test system: SF-539
[66] = test system: SNB-75
[67] = test system: T47D
[68] = test system: UACC-257

Structure (SMILES): O=C(N/C(=C\c1ccccc1[N+](=O)[O-])c1nc2ccccc2[nH]1)c1ccccc1
- GI50 [1]: > 100 µM (inactive)
- GI50 [2]: 57.9 µM (inactive)
- GI50 [3]: > 100 µM (inactive)
- GI50 [4]: 93.5 µM (inactive)
- GI50 [5]: > 100 µM (inactive)
- GI50 [6]: > 100 µM (inactive)
- GI50 [7]: 88.9 µM
- GI50 [8]: 40.1 µM (inactive)
- GI50 [9]: > 100 µM (inactive)
- GI50 [10]: > 100 µM (inactive)
- GI50 [11]: 43.9 µM (inactive)
- GI50 [12]: > 100 µM (inactive)
- GI50 [13]: > 100 µM (inactive)
- GI50 [14]: 59.4 µM (inactive)
- GI50 [15]: > 100 µM (inactive)
- GI50 [16]: > 100 µM (inactive)
- GI50 [17]: 35.1 µM (inactive)
- GI50 [18]: > 100 µM (inactive)
- GI50 [19]: > 100 µM (inactive)
- GI50 [20]: 56.8 µM (inactive)
- GI50 [21]: 68.1 µM (inactive)
- GI50 [22]: > 100 µM (inactive)
- GI50 [23]: > 100 µM (inactive)
- GI50 [24]: 71.3 µM (inactive)
- GI50 [25]: 56.1 µM (inactive)
- GI50 [26]: > 100 µM (inactive)
- GI50 [27]: 55.8 µM (inactive)
- GI50 [28]: > 100 µM (inactive)
- GI50 [29]: > 100 µM (inactive)
- GI50 [30]: 72.8 µM (inactive)
- GI50 [31]: > 100 µM (inactive)
- GI50 [32]: > 100 µM (inactive)
- GI50 [33]: > 100 µM (inactive)
- GI50 [34]: 92.7 µM (inactive)
- GI50 [35]: 37.6 µM (inactive)
- GI50 [36]: 58.5 µM (inactive)
- GI50 [37]: > 100 µM (inactive)
- GI50 [38]: > 100 µM (inactive)
- GI50 [39]: 62.4 µM (inactive)
- GI50 [40]: 45.8 µM (inactive)
- GI50 [41]: > 100 µM (inactive)

Structure (SMILES): N=c1nc(N)c2cc3c(N)nc(=N)c3cc12
- GI50 [42]: 4.86 µM (inactive)
- GI50 [43]: > 9.27 µM (inactive)
- GI50 [44]: > 100 µM (inactive)
- GI50 [45]: 63.5 µM (inactive)
- GI50 [46]: 3.99 µM (inactive)
- GI50 [1]: 8.38 µM (inactive)
- GI50 [2]: 2.28 µM (inactive)
- GI50 [3]: > 91.8 µM (inactive)
- GI50 [4]: > 73.5 µM (inactive)
- GI50 [47]: 5.74 µM (inactive)
- GI50 [5]: 30.7 µM (inactive)
- GI50 [48]: 30.5 µM (inactive)
- GI50 [49]: 25.2 µM (inactive)
- GI50 [6]: 31.3 µM (inactive)
- GI50 [50]: 4.55 µM (inactive)
- GI50 [7]: 71.6 µM
- GI50 [51]: 2.02 µM (inactive)
- GI50 [52]: 8.97 µM (inactive)
- GI50 [53]: 12.4 µM (inactive)
- GI50 [8]: 3.94 µM (inactive)
- GI50 [9]: 82.2 µM (inactive)
- GI50 [54]: 36.1 µM (inactive)
- GI50 [10]: > 100 µM (inactive)
- GI50 [11]: 2.2 µM (inactive)
- GI50 [12]: > 100 µM (inactive)
- GI50 [13]: 72.9 µM (inactive)
- GI50 [55]: 2.49 µM (inactive)
- GI50 [14]: 38.1 µM (inactive)
- GI50 [15]: 2.47 µM (inactive)
- GI50 [16]: 1.87 µM (inactive)
- GI50 [56]: 33.5 µM (inactive)
- GI50 [57]: 2.69 µM (inactive)
- GI50 [58]: 3.19 µM (inactive)
- GI50 [59]: 2.05 µM (inactive)
- GI50 [17]: 4.07 µM (inactive)
- GI50 [18]: 2.95 µM (inactive)
- GI50 [60]: 13 µM (inactive)
- GI50 [19]: 35.3 µM (inactive)
- GI50 [61]: 22.5 µM (inactive)
- GI50 [20]: 16 µM (inactive)
- GI50 [21]: 27.9 µM (inactive)
- GI50 [22]: 15.4 µM (inactive)
- GI50 [23]: 19.1 µM (inactive)
- GI50 [24]: 4.35 µM (inactive)
- GI50 [62]: 36.1 µM (inactive)
- GI50 [63]: 3.13 µM (inactive)
- GI50 [25]: 6.32 µM (inactive)
- GI50 [26]: 14.5 µM (inactive)
- GI50 [64]: 2.62 µM (inactive)
- GI50 [27]: 14.9 µM (inactive)
- GI50 [65]: 4.85 µM (inactive)
- GI50 [28]: 2.45 µM (inactive)
- GI50 [29]: 3.31 µM (inactive)
- GI50 [30]: 60.8 µM (inactive)
- GI50 [31]: 28.6 µM (inactive)
- GI50 [32]: 5.07 µM (inactive)
- GI50 [33]: 58.6 µM (inactive)
- GI50 [66]: 8.09 µM (inactive)
- GI50 [34]: 9.35 µM (inactive)
- GI50 [35]: 3.83 µM (inactive)
- GI50 [36]: 5.27 µM (inactive)
- GI50 [67]: 8.51 µM (inactive)
- GI50 [37]: 15.3 µM (inactive)
- GI50 [38]: 11.5 µM (inactive)
- GI50 [68]: 3.37 µM (inactive)
- GI50 [39]: 3.72 µM (inactive)
- GI50 [40]: 7.5 µM (inactive)

Source: ChEMBL document CHEMBL1201862, “PubChem BioAssay data set” (2004)
